# Experimental data: ChEMBL document CHEMBL4411258, “Novel natural compounds from endophytic fungi with anticancer activity” (Eur J Med Chem, 2018)
# Key:
# MDA-MB-435 = assay: Cytotoxicity against human MDA-MB-435 cells by MTT assay; assay type: functional, cell-based
# A549 [1] = assay: Cytotoxicity against human A549 cells by MTT assay; assay type: functional, cell-based
# SGC-7901 = assay: Cytotoxicity against human SGC7901 cells by MTT assay; assay type: functional, cell-based
# HL-60 [2] = assay: Cytotoxicity against human HL60 cells by trypan blue staining based assay; assay type: functional, cell-based
# HepG2 [3] = assay: Cytotoxicity against human HepG2 cells after 72 hrs by MTT assay; assay type: functional, cell-based; conditions: HepG2, 72 h
# A549 [4] = assay: Cytotoxicity against human A549 cells after 72 hrs by MTT assay; assay type: functional, cell-based; conditions: A549, 72 h
# Raji = assay: Cytotoxicity against human Raji cells after 72 hrs by MTT assay; assay type: functional, cell-based
# HL-60 [5] = assay: Cytotoxicity against human HL60 cells after 72 hrs by MTT assay; assay type: functional, cell-based; conditions: HL-60, 72 h
# MCF7 [6] = assay: Cytotoxicity against human MCF7 cells after 72 hrs by MTT assay; assay type: functional, cell-based; conditions: MCF7, 72 h
# L02 = assay: Cytotoxicity against human L02 cells by MTS assay; assay type: cell-based
# PC-3 = assay: Cytotoxicity against human PC3 cells by MTT assay; assay type: functional, cell-based
# HepG2 [7] = assay: Cytotoxicity against human HepG2 cells by MTT assay; assay type: functional, cell-based
# HepG2 [8] = assay: Cytotoxicity against human HepG2 cells after 24 hrs by MTT assay; assay type: functional, cell-based; conditions: HepG2, 24 h
# MOLT-3 = assay: Cytotoxicity against human MOLT3 cells by XTT assay; assay type: functional, cell-based
# NCI-H187 = assay: Cytotoxicity against human NCI-H187 cells by resazurin microplate assay; assay type: functional, cell-based
# Vero = assay: Cytotoxicity against African green monkey Vero cells by resazurin microplate assay; assay type: cell-based; conditions: Chlorocebus sabaeus
# MCF7 [9] = assay: Cytotoxicity against human MCF7 cells by MTS assay; assay type: functional, cell-based
# HeLa = assay: Cytotoxicity against human HeLa cells by MTS assay; assay type: functional, cell-based
# Huh-7 = assay: Cytotoxicity against human HuH7 cells by MTS assay; assay type: functional, cell-based
# A549 [10] = assay: Cytotoxicity against human A549 cells by MTS assay; assay type: functional, cell-based
# NCI-H446 = assay: Cytotoxicity against human NCI-H446 cells by MTS assay; assay type: functional, cell-based
# [11] = Cytotoxicity against mouse LM3 cells by MTS assay; assay type: functional, cell-based
# SW1990 = assay: Cytotoxicity against human SW1990 cells by MTS assay; assay type: functional, cell-based
# SF-268 = assay: Cytotoxicity against human SF268 cells after 48 hrs by sulforhodamine B assay; assay type: functional, cell-based
# NCI-H460 = assay: Cytotoxicity against human NCI-H460 cells after 48 hrs by sulforhodamine B assay; assay type: functional, cell-based
# HepG2 [12] = assay: Cytotoxicity against human HepG2 cells after 48 hrs by sulforhodamine B assay; assay type: functional, cell-based
# MCF7 [13] = assay: Cytotoxicity against human MCF7 cells after 48 hrs by sulforhodamine B assay; assay type: functional, cell-based
# HL-60 [14] = assay: Cytotoxicity against human HL60 cells by MTT assay; assay type: functional, cell-based
# [15] = Inhibition of RANKL-induced NFkappaB (unknown origin) activation expressed in mouse RAW264.7 cells preincubated for 1 hr followed by RANKL stimulation and measured after 6 hrs by luciferase reporter gene based assay; assay type: cell-based
# SH-SY5Y = assay: Cytotoxicity against human SH-SY5Y cells by MTT assay; assay type: functional, cell-based
# NB-4 = assay: Cytotoxicity against human NB4 cells by MTT assay; assay type: functional, cell-based
# BT-549 = assay: Cytotoxicity against human BT549 cells after 48 hrs by neutral red dye based assay; assay type: functional, cell-based; conditions: BT-549, 48 h
# SK-OV-3 = assay: Cytotoxicity against human SKOV3 cells after 48 hrs by neutral red dye based assay; assay type: functional, cell-based; conditions: SK-OV-3, 48 h
# MCF7 [16] = assay: Cytotoxicity against human MCF7 cells by MTT assay; assay type: functional, cell-based
structure (smiles),measurement,setting,value
CC1=C[C@@H]2/C=C/C[C@H](C)/C=C(\C)[C@@H](O)C(=O)/C=C/C(=O)[C@]23C(=O)N[C@H]2Cc4c([nH]c5ccccc45)[C@@]1(C)[C@@H]23,IC50,MDA-MB-435,7.55 µM
same,IC50,A549 [1],16.1 µM
same,IC50,SGC-7901,7.32 µM
CC(C)=CCCC(C)(O)[C@H]1CC[C@@]2(C)OC3=C(C[C@@H]12)C(=O)[C@@H](O)CC3 (some centres undefined),IC50,HL-60 [2],32.5 µM
CC1=C[C@@H]2/C=C/C[C@H](C)/C=C(\C)C(=O)C(=O)/C=C/C(=O)[C@]23C(=O)N[C@H]2Cc4c([nH]c5ccccc45)[C@@]1(C)[C@@H]23,IC50,MDA-MB-435,4.65 µM
same,IC50,A549 [1],8.73 µM
same,IC50,SGC-7901,5.32 µM
COc1cc(=O)oc(CO)c1[C@H](O)CO,IC50,HepG2 [3],1 to 26.8 µg/mL
same,IC50,A549 [4],1 to 26.8 µg/mL
same,IC50,Raji,1 to 26.8 µg/mL
same,IC50,HL-60 [5],1 to 26.8 µg/mL
same,IC50,MCF7 [6],1 to 26.8 µg/mL
CC(C)CCC[C@@H](C)[C@H]1CC[C@H]2[C@@H]3CC[C@H]4C[C@@H](O[C@@H]5O[C@H](CO)[C@@H](O)[C@H](O)[C@H]5O)CC[C@]4(C)[C@H]3CC[C@]12C,IC50,L02,4.7 µM
same,IC50,PC-3,6.1 µM
same,IC50,HepG2 [7],5.5 µM
O=C1C[C@@H](O)[C@]2(Oc3cccc4c(O)ccc(c34)O2)c2c(O)ccc(O)c21,IC50,HL-60 [2],2.39 µM
CC(=O)OC(CC=C(C)C)C[C@@]1(C)CCC[C@H]2[C@@]3(C)C=CC(=O)[C@@H](C)[C@@H]3[C@H](OC(C)=O)C(=O)[C@@]21C (some centres undefined),IC50,HepG2 [8],140 µM
C/C(=C\C=C\[C@H](O)[C@@H](C)O)[C@H](O)[C@H](C)C(=O)O[C@H]1C[C@H](C)C[C@@H]2C=C[C@H](C)[C@](C)(C(=O)CCO)[C@@H]12,IC50,MOLT-3,37.3 µg/mL
C/C=C/C(O)[C@@H]1OC(=O)[C@@]2(C)[C@@H]3CC[C@@H](C)C[C@H]3C=C[C@@H]12 (some centres undefined),IC50,NCI-H187,30.5 µg/mL
same,IC50,Vero,24.2 µg/mL
O=C1CC[C@@H](c2ccc(O)c3c2[C@@H](O)CCC3=O)c2cccc(O)c21,IC50,L02,1 to 20 µM
same,IC50,MCF7 [9],1 to 20 µM
same,IC50,HeLa,1 to 20 µM
same,IC50,Huh-7,1 to 20 µM
same,IC50,A549 [10],1 to 20 µM
same,IC50,NCI-H446,1 to 20 µM
same,IC50,[11],1 to 20 µM
same,IC50,SW1990,1 to 20 µM
CCC/C=C/[C@H]1C=CC(=O)[C@H](O)[C@H]1C(=O)C(C)O (some centres undefined),IC50,"SF-268; Homo sapiens, SF-268, 48 h",40.5 µM
same,IC50,"NCI-H460; Homo sapiens, NCI-H460, 48 h",36.4 µM
same,IC50,"HepG2 [12]; Homo sapiens, HepG2, 48 h",46.8 µM
same,IC50,"MCF7 [13]; Homo sapiens, MCF7, 48 h",15.7 µM
C/C1=C\C(=O)OC[C@]23CCC(C(=O)O)=C[C@H]2O[C@@H]2CC(OC(=O)/C=C\C=C\[C@H]([C@H](C)O)OCC1)[C@@]3(C)[C@]21CO1 (some centres undefined),IC50,SF-268; sf-268,0.751 µM
same,IC50,NCI-H460; nci-h460,0.36 µM
same,IC50,HepG2 [12]; hepg2,0.38 µM
same,IC50,MCF7 [13]; mcf7,0.17 µM
O=C1CC[C@]2(C[C@@H](O)C(=O)O2)c2cccc(O)c21,IC50,HL-60 [2],29.1 µM
CC1=C(C)C2=CC(=O)C3=C(C(=O)c4oc(C)cc4C3=O)[C@@]2(C)CC1=O,IC50,HL-60 [14],12.5 µM
C=C(CO)C(=O)CCC(C)C1=CC[C@@]2(C)OC3=C(C[C@@H]12)C(=O)[C@@H](O)CC3 (some centres undefined),IC50,HL-60 [2],4.81 µM
COC(=O)c1cc(O)cc2oc3c(c(=O)c12)[C@@H](OC)O[C@H](C)C3,IC50,[15],30 to 46 µM
C/C=C(\C)C(=O)[C@@H](C)c1cc(O)c2c(c1O)O[C@]1(C)CC[C@H]3O[C@@H](C(C)(C)O)CC[C@]3(C)[C@H]1C2=O,IC50,"SF-268; Homo sapiens, SF-268, 48 h",6.4 to 42.6 µM
same,IC50,"NCI-H460; Homo sapiens, NCI-H460, 48 h",6.4 to 42.6 µM
same,IC50,"HepG2 [12]; Homo sapiens, HepG2, 48 h",6.4 to 42.6 µM
same,IC50,"MCF7 [13]; Homo sapiens, MCF7, 48 h",6.4 to 42.6 µM
COC(=O)[C@]1(Cc2ccc(O)c(CC(C)=O)c2)OC(=O)C(O)=C1c1ccc(OC)cc1,IC50,L02,< 10 µM
same,IC50,SH-SY5Y,< 10 µM
same,IC50,HepG2 [7],< 10 µM
same,IC50,NB-4,< 10 µM
COC(=O)c1cc(OC)cc2c1C(=O)[C@@H]([C@@H](O)CC(C)=O)CO2,IC50,[15],30 to 46 µM
C=C(CC[C@@H](C)[C@H]1CC=C2C3=C([C@@H](O)[C@H](OC(C)=O)[C@@]21C)[C@@]1(C)C[C@@H](O)[C@H](OC(C)=O)C(C)(C)[C@@H]1CC3)C(C)C,IC50,BT-549,1.97 µg/mL
same,IC50,SK-OV-3,0.16 µg/mL
CC(C)=CC/C=C(/C)[C@H]1CC[C@@]2(C)OC3=C(C[C@@H]12)C(=O)CC[C@@H]3O,IC50,HL-60 [2],30.6 µM
COC(=O)[C@@H]1c2c(oc3cc(CO)cc(OC)c3c2=O)C=C[C@H]1O,IC50,SH-SY5Y,4.9 µM
same,IC50,A549 [1],5.7 µM
same,IC50,NB-4,8.6 µM
same,IC50,MCF7 [16],8.8 µM
CCC(=O)Cc1c(OC)cc(=O)oc1CO,IC50,HepG2 [3],1 to 26.8 µg/mL
same,IC50,A549 [4],1 to 26.8 µg/mL
same,IC50,Raji,1 to 26.8 µg/mL
same,IC50,HL-60 [5],1 to 26.8 µg/mL
same,IC50,MCF7 [6],1 to 26.8 µg/mL
CO[C@@H]1CCC(=O)c2c([C@@H]3CCC(=O)c4c(O)cccc43)ccc(O)c21,IC50,L02,1 to 20 µM
same,IC50,MCF7 [9],1 to 20 µM
same,IC50,HeLa,1 to 20 µM
same,IC50,Huh-7,1 to 20 µM
same,IC50,A549 [10],1 to 20 µM
same,IC50,NCI-H446,1 to 20 µM
same,IC50,[11],1 to 20 µM
same,IC50,SW1990,1 to 20 µM
